Results reported in PubChem BioAssay AID1259407 (Chemical Carcinogenesis Research Information System (CCRIS), 2018).
The source made the active and inactive calls. The rule behind the calls is not given here.

Test system: CCRIS mutagenicity, Ames/micronucleus/aberration tests
Assay: CCRIS mutagenicity studies
[1] = Test System: AMES SALMONELLA TYPHIMURIUM, Strain/Indicator: TA97, Metabolic Activation: NONE, Method: PREINCUBATION
[2] = Test System: AMES SALMONELLA TYPHIMURIUM, Strain/Indicator: TA100, Metabolic Activation: NONE, Method: PREINCUBATION

Question: Which results are given for `[CH3][Hg+]`?
Answer: mutagenic call (Test System: AMES SALMONELLA TYPHIMURIUM, Strain/Indicator: TA97, Metabolic Activation: HAMSTER, LIVER, S-9, AROCLOR 1254 (10%), Method: PREINCUBATION): inactive; negative; mutagenic call (Test System: AMES SALMONELLA TYPHIMURIUM, Strain/Indicator: TA97, Metabolic Activation: HAMSTER, LIVER, S-9, AROCLOR 1254 (30%), Method: PREINCUBATION): inactive; negative; mutagenic call [1]: inactive; negative; mutagenic call (Test System: AMES SALMONELLA TYPHIMURIUM, Strain/Indicator: TA97, Metabolic Activation: RAT, LIVER, S-9, AROCLOR 1254 (10%), Method: PREINCUBATION): inactive; negative; mutagenic call (Test System: AMES SALMONELLA TYPHIMURIUM, Strain/Indicator: TA97, Metabolic Activation: RAT, LIVER, S-9, AROCLOR 1254 (30%), Method: PREINCUBATION): inactive; negative; mutagenic call (Test System: AMES SALMONELLA TYPHIMURIUM, Strain/Indicator: TA98, Metabolic Activation: HAMSTER, LIVER, S-9, AROCLOR 1254 (10%), Method: PREINCUBATION): inactive; negative; mutagenic call (Test System: AMES SALMONELLA TYPHIMURIUM, Strain/Indicator: TA98, Metabolic Activation: HAMSTER, LIVER, S-9, AROCLOR 1254 (30%), Method: PREINCUBATION): inactive; negative; mutagenic call (Test System: AMES SALMONELLA TYPHIMURIUM, Strain/Indicator: TA98, Metabolic Activation: NONE, Method: PREINCUBATION): inactive; negative; mutagenic call (Test System: AMES SALMONELLA TYPHIMURIUM, Strain/Indicator: TA98, Metabolic Activation: RAT, LIVER, S-9, AROCLOR 1254 (10%), Method: PREINCUBATION): inactive; negative; mutagenic call (Test System: AMES SALMONELLA TYPHIMURIUM, Strain/Indicator: TA98, Metabolic Activation: RAT, LIVER, S-9, AROCLOR 1254 (30%), Method: PREINCUBATION): inactive; negative; mutagenic call (Test System: AMES SALMONELLA TYPHIMURIUM, Strain/Indicator: TA100, Metabolic Activation: HAMSTER, LIVER, S-9, AROCLOR 1254 (10%), Method: PREINCUBATION): inactive; negative; mutagenic call (Test System: AMES SALMONELLA TYPHIMURIUM, Strain/Indicator: TA100, Metabolic Activation: HAMSTER, LIVER, S-9, AROCLOR 1254 (30%), Method: PREINCUBATION): inactive; negative; mutagenic call [2]: inactive; negative; mutagenic call (Test System: AMES SALMONELLA TYPHIMURIUM, Strain/Indicator: TA100, Metabolic Activation: RAT, LIVER, S-9, AROCLOR 1254 (10%), Method: PREINCUBATION): inactive; negative; mutagenic call (Test System: AMES SALMONELLA TYPHIMURIUM, Strain/Indicator: TA100, Metabolic Activation: RAT, LIVER, S-9, AROCLOR 1254 (30%), Method: PREINCUBATION): inactive; negative; mutagenic call (Test System: AMES SALMONELLA TYPHIMURIUM, Strain/Indicator: TA1535, Metabolic Activation: HAMSTER, LIVER, S-9, AROCLOR 1254 (10%), Method: PREINCUBATION): inactive; negative; mutagenic call (Test System: AMES SALMONELLA TYPHIMURIUM, Strain/Indicator: TA1535, Metabolic Activation: HAMSTER, LIVER, S-9, AROCLOR 1254 (30%), Method: PREINCUBATION): inactive; negative; mutagenic call (Test System: AMES SALMONELLA TYPHIMURIUM, Strain/Indicator: TA1535, Metabolic Activation: NONE, Method: PREINCUBATION): inactive; negative; mutagenic call (Test System: AMES SALMONELLA TYPHIMURIUM, Strain/Indicator: TA1535, Metabolic Activation: RAT, LIVER, S-9, AROCLOR 1254 (10%), Method: PREINCUBATION): inactive; negative; mutagenic call (Test System: AMES SALMONELLA TYPHIMURIUM, Strain/Indicator: TA1535, Metabolic Activation: RAT, LIVER, S-9, AROCLOR 1254 (30%), Method: PREINCUBATION): inactive; negative; mutagenic call (Test System: AMES SALMONELLA TYPHIMURIUM, Strain/Indicator: TA1537, Metabolic Activation: HAMSTER, LIVER, S-9, AROCLOR 1254 (30%), Method: PREINCUBATION): inactive; negative; mutagenic call (Test System: AMES SALMONELLA TYPHIMURIUM, Strain/Indicator: TA1537, Metabolic Activation: NONE, Method: PREINCUBATION): inactive; negative; mutagenic call (Test System: AMES SALMONELLA TYPHIMURIUM, Strain/Indicator: TA1537, Metabolic Activation: RAT, LIVER, S-9, AROCLOR 1254 (30%), Method: PREINCUBATION): inactive; negative

Question: Which results are given for `O=C(O)CCC(=O)O`?
Answer: mutagenic call [1]: inactive; negative; mutagenic call (Test System: AMES SALMONELLA TYPHIMURIUM, Strain/Indicator: TA97, Metabolic Activation: RAT, LIVER, S-9, AROCLOR 1254, Method: PREINCUBATION): inactive; negative; mutagenic call (Test System: AMES SALMONELLA TYPHIMURIUM, Strain/Indicator: TA102, Metabolic Activation: NONE, Method: PREINCUBATION): inactive; negative; mutagenic call (Test System: AMES SALMONELLA TYPHIMURIUM, Strain/Indicator: TA102, Metabolic Activation: RAT, LIVER, S-9, AROCLOR 1254, Method: PREINCUBATION): inactive; negative

Question: For `Nc1[nH]c(=O)nc2c1ncn2[C@H]1C[C@H](O)[C@@H](CO)O1`, which mutagenic call [2] is on record?
Answer: inactive; negative

Question: Which results are given for `c1ccc2c(c1)-c1cccc3cccc-2c13`?
Answer: mutagenic call (Test System: AMES SALMONELLA TYPHIMURIUM, Strain/Indicator: TA97, Metabolic Activation: NONE, Method: STANDARD PLATE): inactive; negative; mutagenic call (Test System: AMES SALMONELLA TYPHIMURIUM, Strain/Indicator: TA97, Metabolic Activation: RAT, LIVER, S-9, AROCLOR 1254, Method: TAPED-PLATE): active; positive; mutagenic call (Test System: AMES SALMONELLA TYPHIMURIUM, Strain/Indicator: TA97, Metabolic Activation: RAT, LIVER, S-9, PCB, Method: STANDARD PLATE): active; positive; mutagenic call (Test System: AMES SALMONELLA TYPHIMURIUM, Strain/Indicator: TA98, Metabolic Activation: NONE, Method: STANDARD PLATE): inactive; negative; mutagenic call (Test System: AMES SALMONELLA TYPHIMURIUM, Strain/Indicator: TA98, Metabolic Activation: RAT, LIVER, S-9, AROCLOR 1254 (4%), Method: STANDARD PLATE): inactive; negative; mutagenic call (Test System: AMES SALMONELLA TYPHIMURIUM, Strain/Indicator: TA98, Metabolic Activation: RAT, LIVER, S-9, AROCLOR 1254, Method: FLUCTUATION): active; positive; mutagenic call (Test System: AMES SALMONELLA TYPHIMURIUM, Strain/Indicator: TA98, Metabolic Activation: RAT, LIVER, S-9, AROCLOR 1254, Method: TAPED-PLATE): active; positive; mutagenic call (Test System: AMES SALMONELLA TYPHIMURIUM, Strain/Indicator: TA98, Metabolic Activation: RAT, LIVER, S-9, PCB, Method: STANDARD PLATE): active; positive; mutagenic call (Test System: AMES SALMONELLA TYPHIMURIUM, Strain/Indicator: TA100, Metabolic Activation: NONE, Method: STANDARD PLATE): inactive; negative; mutagenic call (Test System: AMES SALMONELLA TYPHIMURIUM, Strain/Indicator: TA100, Metabolic Activation: RAT, LIVER, S-9, AROCLOR 1254, Method: FLUCTUATION): active; positive; mutagenic call (Test System: AMES SALMONELLA TYPHIMURIUM, Strain/Indicator: TA100, Metabolic Activation: RAT, LIVER, S-9, AROCLOR 1254, Method: TAPED-PLATE): active; positive; mutagenic call (Test System: AMES SALMONELLA TYPHIMURIUM, Strain/Indicator: TA100, Metabolic Activation: RAT, LIVER, S-9, PCB, Method: STANDARD PLATE): active; positive; mutagenic call (Test System: AMES SALMONELLA TYPHIMURIUM, Strain/Indicator: TA102, Metabolic Activation: RAT, LIVER, S-9, AROCLOR 1254, Method: TAPED-PLATE): inactive; negative; mutagenic call (Test System: AMES SALMONELLA TYPHIMURIUM, Strain/Indicator: TA1535, Metabolic Activation: RAT, LIVER, S-9, AROCLOR 1254, Method: TAPED-PLATE): inactive; negative; mutagenic call (Test System: AMES SALMONELLA TYPHIMURIUM, Strain/Indicator: TA1537, Metabolic Activation: RAT, LIVER, S-9, AROCLOR 1254, Method: TAPED-PLATE): active; positive; mutagenic call (Test System: UDS RAT HEPATOCYTES, Strain/Indicator: THY INCORP, Metabolic Activation: NONE, Method: IN VIVO-IN VITRO): inactive; negative
